According to patent US20230141603A1, “BENZODIAZEPINE DERIVATIVES AS GABA A GAMMA1 PAM” (Hoffmann-La Roche Inc., priority 2021, published 2023):

What was measured:
h-GABAA α1β3γ2 = biological target: T1, h-GABAA α1β3γ2 (Homo sapiens, UniProt P14867+P18507); experiment: Radioligand binding assay, [3H]Flumazenil competition, HEK293F membranes; details: for γ2/γ1 Selectivity Ratio / LogSel: Table 1; for γ2/γ1 Selectivity Ratio: Ki α1β3γ2 (nM)/Ki α2β2γ1 (nM); for LogSel: Log[Ki α1β3γ2 (nM)/Ki α2β2γ1 (nM)]
T1 construct: expressed in transfected cells; host or cells: HEK293F cells, membranes
Protocol: The affinity of compounds at GABAA γ2 subunit-containing receptors was measured by competition for [^3H]Flumazenil (81.1 Ci/mmol; Roche) binding to HEK293F cells expressing human (transiently transfected) receptors of composition α1β3γ2.
Harvested pellets from HEK293F cells expressing the different GABAA γ2 receptor subtypes were resuspended in Mannitol Buffer pH 7.2-7.4 and processed as described above for the cells expressing the GABAA γ1 subunit-containing receptors.
Assays were incubated to equilibrium for 1 hour at 4° C. and harvested onto GF/C uni-filters (Packard) by filtration using a Packard harvester and washing with ice-cold wash buffer (50 mM Tris; pH 7.5). After drying, filter-retained radioactivity was detected by liquid scintillation counting. Ki values were calculated using Excel-Fit (Microsoft) and are the means of two determinations.

h-GABAA α2β2γ1 = biological target: T2, h-GABAA α2β2γ1 (Homo sapiens, UniProt P47869+Q8N1C3); experiment: Two-electrode voltage clamp electrophysiology in Xenopus oocytes, modulation of GABA EC20 current; format: cell-based; parameters: host or cells: Xenopus laevis oocytes, RNA micro-injection; details: Table 2; for Efficacy (GABA)%: % modulation of GABA EC20 = 100*(Fold increase−1), compound at approx. 30-fold Ki; for Fold increase h-GABA-A α2β2γ1 oocyte @ 30-fold Ki: compound at approx. 30-fold its Ki α2β2γ1, GABA EC20, Xenopus oocytes
T2 sequence (P47869 29-451): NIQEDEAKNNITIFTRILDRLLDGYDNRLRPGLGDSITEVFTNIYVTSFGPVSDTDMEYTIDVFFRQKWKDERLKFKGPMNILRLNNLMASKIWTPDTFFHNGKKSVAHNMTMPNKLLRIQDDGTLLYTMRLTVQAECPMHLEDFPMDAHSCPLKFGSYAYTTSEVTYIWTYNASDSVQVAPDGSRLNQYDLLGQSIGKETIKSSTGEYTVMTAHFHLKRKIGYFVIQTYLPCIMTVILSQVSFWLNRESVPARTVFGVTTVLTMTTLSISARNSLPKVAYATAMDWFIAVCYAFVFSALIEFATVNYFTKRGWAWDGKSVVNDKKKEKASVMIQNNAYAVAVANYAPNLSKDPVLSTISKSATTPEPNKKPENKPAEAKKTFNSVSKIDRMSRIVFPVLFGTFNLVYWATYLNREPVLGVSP
T2 sequence (P47870 25-512 partner limits assumed): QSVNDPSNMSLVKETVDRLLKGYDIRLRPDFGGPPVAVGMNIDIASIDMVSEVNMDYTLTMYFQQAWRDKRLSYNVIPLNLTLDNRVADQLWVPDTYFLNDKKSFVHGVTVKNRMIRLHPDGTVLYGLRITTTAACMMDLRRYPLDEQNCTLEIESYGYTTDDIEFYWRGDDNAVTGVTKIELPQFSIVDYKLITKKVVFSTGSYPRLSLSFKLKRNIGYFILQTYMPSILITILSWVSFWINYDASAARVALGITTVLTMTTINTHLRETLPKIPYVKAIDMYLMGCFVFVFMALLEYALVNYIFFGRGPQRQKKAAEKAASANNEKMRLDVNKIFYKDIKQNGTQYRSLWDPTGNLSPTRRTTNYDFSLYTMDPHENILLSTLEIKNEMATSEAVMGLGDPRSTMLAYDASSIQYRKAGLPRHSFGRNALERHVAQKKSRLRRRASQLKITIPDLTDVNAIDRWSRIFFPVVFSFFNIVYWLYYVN
T2 sequence (Q8N1C3 36-465): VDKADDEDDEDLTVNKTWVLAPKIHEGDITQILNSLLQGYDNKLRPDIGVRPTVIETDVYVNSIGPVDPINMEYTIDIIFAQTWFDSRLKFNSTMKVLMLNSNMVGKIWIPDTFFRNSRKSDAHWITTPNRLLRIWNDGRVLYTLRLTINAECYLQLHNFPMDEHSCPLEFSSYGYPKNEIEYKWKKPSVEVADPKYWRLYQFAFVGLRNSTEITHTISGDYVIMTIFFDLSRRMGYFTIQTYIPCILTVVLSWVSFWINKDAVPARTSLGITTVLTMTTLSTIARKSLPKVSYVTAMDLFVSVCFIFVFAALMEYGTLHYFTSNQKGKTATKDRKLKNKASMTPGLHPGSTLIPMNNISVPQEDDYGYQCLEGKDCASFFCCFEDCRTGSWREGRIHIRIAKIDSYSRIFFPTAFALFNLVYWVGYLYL
Protocol: Xenopus laevis oocytes at maturation stages V-VJ were used for the expression of cloned mRNA encoding GABAA receptor subunits. Oocytes ready for RNA micro-injection were bought from Ecocyte, Castrop-Rauxel, Germany and stored in modified Barth's medium (composition in mM: NaCl 88, KCl 1, NaHCO3 2.4, HEPES 10, MgSO4 0.82, CaNO3 0.33, CaCl2 0.33, pH=7.5) at 20° C. until the experiment.
Oocytes were plated in 96-well plates for microinjection using the Roboinject automated instrument (MultiChannelSystems, Reutlingen, Germany). Approximately 50 nL of an aqueous solution containing the RNA transcripts for the subunits of the desired GABAA receptor subtype was injected into each oocyte. […] Oocytes were kept in modified Barth's medium (composition in mM: NaCl 88, KCl 1, NaHCO3 […], HEPES 10, MgSO4 0.82, CaNO3 0.33, CaCl2 0.33, pH=7.5) at 20° C. until the experiment.
Electrophysiological experiments were performed using the Roboocyte instrument (MultiChannelSystems, Reutlingen, Germany) on days 3 to 5 after the micro-injection of mRNA. During the experiment the oocytes were constantly superfused by a solution containing (in mM) NaCl 90, KCl 1, HEPES 5, MgCl2 1, CaCl2 1 (pH 7.4). Oocytes were impaled by two glass microelectrodes (resistance: 0.5-0.8 MΩ) which were filled with a solution containing KCl 1M+K-acetate 1.5 M and voltage-clamped to −80 mV. The recordings were performed at room temperature using the Roboocyte two-electrode voltage clamp system (Multichannelsystem). After an initial equilibration period of 1.5 min GABA was added for 1.5 min at a concentration evoking approximately 20% of a maximal current response (EC20). After another rest interval of 2.5 min GABA was again added evoking a response of similar amplitude and shape. […] Current traces were recorded at a digitization rate of 10 Hz during and shortly before and after the GABA application.
Each compound and concentration was tested on at least 3 oocytes. Different oocytes were used for different compound concentrations.
For the analysis, the digitized current traces of the first and second GABA response were superimposed and, if necessary, rescaled to equal maximal amplitudes. The ratio between the two responses during the time interval of test compound application was calculated point by point. The extremum of the resulting “ratio trace” was taken as the efficacy (“Fold increase”) of the compound expressed as “% modulation of GABA EC20” (100*(Fold increase−1)).

Row | Structure (SMILES) | Ki (h-GABAA α1β3γ2) | γ2/γ1 Selectivity Ratio (h-GABAA α1β3γ2) | LogSel (h-GABAA α1β3γ2) | Efficacy (GABA)% (h-GABAA α2β2γ1) | Fold increase h-GABA-A α2β2γ1 oocyte @ 30-fold Ki (h-GABAA α2β2γ1)
1 | Cl.NCc1nnc2n1-c1ccc(Br)c(Cl)c1C(c1c(F)cccc1F)=NC2 [Example 36, [8-bromo-7-chloro-6-(2,6-difluorophenyl)-4H-[1,2,4]triazolo[4,3-a][1,4]benzodiazepin-1-yl]methanamine hydrochloride] | 0.18 µM | 21.2 | 1.33 | 33% | 1.33
2 | Clc1cccnc1C1=NCc2nnc(-c3ccncn3)n2-c2ccc(Br)c(Cl)c21 [Example 44, 8-bromo-7-chloro-6-(3-chloro-2-pyridyl)-1-pyrimidin-4-yl-4H-[1,2,4]triazolo[4,3-a][1,4]benzodiazepine] | 0.276 µM | 28.6 | 1.46 | 62% | 1.62
3 | Cc1nnc2n1-c1ccc(Br)c(Cl)c1C(c1ncccc1F)=NC2 [Example 24, 8-bromo-7-chloro-6-(3-fluoro-2-pyridyl)-1-methyl-4H-[1,2,4]triazolo[4,3-a][1,4]benzodiazepine] | 0.608 µM | 25.0 | 1.40 | 85% | 1.85
4 | Fc1cccc(F)c1C1=NCc2nncn2-c2ccc(C(F)(F)F)c(Cl)c21 [Example 37, 7-chloro-6-(2,6-difluorophenyl)-8-(trifluoromethyl)-4H-[1,2,4]triazolo[4,3-a][1,4]benzodiazepine] | 1.18 µM | 28.5 | 1.45 | 67% | 1.67
5 | O=c1[nH]nc2n1-c1ccc(Br)c(Cl)c1C(c1ccccc1F)=NC2 [Example 26, 8-bromo-7-chloro-6-(2-fluorophenyl)-2,4-dihydro-[1,2,4]triazolo[4,3-a][1,4]benzodiazepin-1-one] | 0.698 µM | 22.1 | 1.34 | 45% | 1.45
6 | Fc1cccc(F)c1C1=NCc2nnc(-c3ccncn3)n2-c2ccc(Br)c(Br)c21 [Example 43, 7,8-dibromo-6-(2,6-difluorophenyl)-1-pyrimidin-4-yl-4H-[1,2,4]triazolo[4,3-a][1,4]benzodiazepine] | 0.51 µM | 88.5 | 1.95 | 23% | 1.23
7 | Cc1nnc2n1-c1ccc(C(F)(F)F)c(Cl)c1C(c1ncccc1F)=NC2 [Example 78, 7-chloro-6-(3-fluoro-2-pyridyl)-1-methyl-8-(trifluoromethyl)-4H-[1,2,4]triazolo[4,3-a][1,4]benzodiazepine] | 4.44 µM | 87.4 | 1.94 | 103% | 2.03
8 | Fc1cccc(F)c1C1=NCc2nnc(-c3cccnn3)n2-c2ccc(Br)c(Br)c21 [Example 42, 7,8-dibromo-6-(2,6-difluorophenyl)-1-pyridazin-3-yl-4H-[1,2,4]triazolo[4,3-a][1,4]benzodiazepine] | 0.243 µM | 44.2 | 1.65 | 97% | 1.97
9 | COc1ccc2c(c1Cl)C(c1c(F)cccc1F)=NCc1nnc(C3CC3)n1-2 [Example 79, 7-chloro-1-cyclopropyl-6-(2,6-difluorophenyl)-8-methoxy-4H-[1,2,4]triazolo[4,3-a][1,4]benzodiazepine] | 0.914 µM | 17.8 | 1.25 | 79% | 1.79
10 | Fc1ccccc1C1=NCc2nncn2-c2ccc(Br)c(Cl)c21 [Example 8, 8-bromo-7-chloro-6-(2-fluorophenyl)-4H-[1,2,4]triazolo[4,3-a][1,4]benzodiazepine] | 0.576 µM | 12.1 | 1.08 | 58% | 1.58
11 | Fc1cccc(F)c1C1=NCc2nnc(-c3ccncn3)n2-c2ccc(Cl)c(Cl)c21 [Example 12, 7,8-dichloro-6-(2,6-difluorophenyl)-1-pyrimidin-4-yl-4H-[1,2,4]triazolo[4,3-a][1,4]benzodiazepine] | 0.49 µM | 47.3 | 1.67 | 49% | 1.49
12 | Fc1cccnc1C1=NCc2nnc(C3CC3)n2-c2ccc(Cl)c(Cl)c21 [Example 65, 7,8-dichloro-1-cyclopropyl-6-(3-fluoro-2-pyridyl)-4H-[1,2,4]triazolo[4,3-a][1,4]benzodiazepine] | 1.56 µM | 24.0 | 1.38 | 114% | 2.14
13 | Fc1ccccc1C1=NCc2nnc(-c3cccnn3)n2-c2ccc(Br)c(Cl)c21 [Example 3, 8-bromo-7-chloro-6-(2-fluorophenyl)-1-pyridazin-3-yl-4H-[1,2,4]triazolo[4,3-a][1,4]benzodiazepine] | 0.453 µM | 51.2 | 1.71 | 113% | 2.13
